Test results reported in paper PMC12440775 (Frontiers in Pharmacology, 2025).
Like-named read-outs stand apart in the source and are kept apart here.

Columns and labels:
human Hepato Pac model = test system: human Hepato Pac model; parameters: method as in Ramsden et al., 2014b; conditions: ref Ramsden et al., 2014b; cited from earlier work
[1] = Food effect on relative bioavailability of 480 mg FDV, two-period crossover (Part 2); type: in vivo, human; conditions: for Tmax: median (range); for Tmax / AUC(0-t) / Vd/F / half-life: N = 7; for AUC(0-t) / Vd/F / half-life: mean (CV%); for Vd/F: read-out: Vz/F; for half-life: read-out: t½ (converted)
Protocol: Blood samples were taken pre-dose (0) and at prespecified time points after dosing (Figure 1). At each time point, approximately 4.9 mL of blood was drawn into evacuated collection tubes, containing ethylene diamine tetraacetate (EDTA) anticoagulant and labeled with sample identification information. The EDTA-anticoagulated blood samples were immediately placed on ice and centrifuged at 4 °C and approximately 2000–4,000 g for approximately 10 min in a refrigerated centrifuge as soon as possible after collection. The harvested plasma was split into two aliquots, immediately placed in appropriately labeled tubes, and stored at −20 °C or below until shipment.
Standard formulas for non-compartmental pharmacokinetic analysis provided by WinNonlin were used in determination of the maximum concentration (Cmax), time to maximum concentration (tmax), oral clearance (CL/F), mean residence time (MRTpo), and apparent volume distribution in terminal phase (Vz/F). The area under the plasma concentration–time curve (AUC) was calculated using a linear up/log down trapezoidal algorithm. The predicted concentration at the last time-point with quantifiable concentration was used for extrapolation of AUC. The fraction excreted as unchanged drug in urine (fe) was calculated as the percentage of the amount of drug excreted in urine as unchanged drug (Aet1–t2) compared to the administered dose ([Huang et al., 2008b]). […]

[2] = Urinary excretion of unchanged FDV after single ascending dose (Part 1); type: in vivo, human; conditions: gMean (gCV%)
Protocol: (§1) Six volunteers received the active drug at each dose level dissolved in a polyethylene glycol (PEG)/tromethamine (TRIS)/meglumine solution, and two received a placebo. One dose level was tested within each group. Subject groups were dosed and evaluated sequentially, beginning with the lowest-dose group and proceeding stepwise to the highest-dose group. The next higher dose was administered only if no safety concerns arose during treatment of the preceding group.
A blank urine sample was collected prior to drug administration, and two 10-mL aliquots were retained to be checked for analytical interference. All urine voided during the sampling intervals 0–4, 4–12, 12–24, and 24–48 h after administration was collected in containers (Figure 1). Subjects were asked to completely void their bladder at the end of each collection interval. The urine volume for each collection interval was documented. Two aliquots of approximately 5 mL were taken and frozen at −20 °C or below and stored for bioanalytical measurement. Until shipped on dry ice to the analytical laboratory, the urine samples were stored at −20 °C or below at the clinical site and stored in the analytical laboratory at −20 °C or below until analysis.
Standard formulas for non-compartmental pharmacokinetic analysis provided by WinNonlin were used in determination of the maximum concentration (Cmax), time to maximum concentration (tmax), oral clearance (CL/F), mean residence time (MRTpo), and apparent volume distribution in terminal phase (Vz/F). The area under the plasma concentration–time curve (AUC) was calculated using a linear up/log down trapezoidal algorithm. The predicted concentration at the last time-point with quantifiable concentration was used for extrapolation of AUC. The fraction excreted as unchanged drug in urine (fe) was calculated as the percentage of the amount of drug excreted in urine as unchanged drug (Aet1–t2) compared to the administered dose ([Huang et al., 2008b]).

[3] = HCV-infected patients, ref Huang et al., cited from earlier work
[4] = Safety and tolerability, food effect part (Part 2); type: in vivo, human
Protocol: as §1
Safety was assessed throughout the study by monitoring changes in clinical laboratory parameters (e.g., serum biochemistry, hematology, and urinalysis), 12-lead electrocardiograms, or vital signs (blood pressure, pulse rate, and temperature measurements); monitoring for occurrence of AEs); and carrying out physical examinations.

CYP3A4 = conditions: therapeutic dose of 120 mg QD; cited from earlier work
HCV = test system: HCV; parameters: method as in Ferenci et al., 2015; conditions: in combination with PegIFN and RBV, treatment-naïve patients; ref Ferenci et al., 2015; cited from earlier work
[5] = parameters: method as in Duan et al., 2012; conditions: rats; ref Duan et al., 2012; cited from earlier work
[6] = 480 mg FDV in solution, fed vs fasted
[7] = male, human, plasma, oral, 480 mg, FDV 480 mg/fasted
[8] = male, human, plasma, oral, 480 mg, FDV 480 mg/fed

C=C[C@@H]1C[C@]1(NC(=O)[C@@H]1C[C@@H](Oc2cc(-c3csc(NC(=O)C(C)C)n3)nc3c(Br)c(OC)ccc23)CN1C(=O)[C@@H](NC(=O)OC1CCCC1)C(C)(C)C)C(=O)O [FDV, Faldaprevir]
Predicted enrichment in the liver in humans (human Hepato Pac model): 22–32 fold | Increase of AUC0–∞ (systemic exposure) after high-fat breakfast [1, 6]: 14% | Increase of Cmax after high-fat and high-calorie breakfast [1, 6]: 9% | Effect of food on the rBA of FDV ([1]; 480 mg FDV in solution, high-fat breakfast): no clinically relevant effect | Tmax ([1]; FDV 480 mg/fasted): 4 (4–6) h | Tmax ([1]; FDV 480 mg/fed): 6 (4–12) h | AUC(0-t) [1, 7]: 83400 ng·h/mL | Vd/F [1, 7]: 161 L | half-life [1, 7]: 19.6 h | Tmax ([1]; male, human, plasma, oral, 480 mg, FDV 480 mg/fasted, read-out: tmax): 6 h | AUC(0-t) [1, 8]: 92000 ng·h/mL | Vd/F [1, 8]: 132 L | half-life [1, 8]: 18 h | Tmax ([1]; male, human, plasma, oral, 480 mg, FDV 480 mg/fed, read-out: tmax): 4 h | Fe0–48h (fraction excreted in urine) ([2]; FDV 48 mg single oral dose): 0.01 (165) % | Fe0–48h (fraction excreted in urine) ([2]; FDV 120 mg single oral dose): 0.02 (93) % | Fe0–48h (fraction excreted in urine) ([2]; FDV 240 mg single oral dose): 0.04 (68) % | Fe0–48h (fraction excreted in urine) ([2]; FDV 480 mg single oral dose): 0.04 (37) % | Fe0–48h (fraction excreted in urine) ([2]; FDV 800 mg single oral dose): 0.03 (110) % | Fe0–48h (fraction excreted in urine) ([2]; FDV 1,200 mg single oral dose): 0.03 (54) % | FDV exposure at 240 mg compared to the 120-mg dose, based on trough concentrations [3]; 2016: approximately 5 fold | FDV exposure at 240 mg compared to the 120-mg dose, based on AUC0–24,ss [3]; 2021: up to 7 fold | Subjects with increases in total bilirubin ([4]; 480 mg, Part 2): eight subjects | Diarrhea and nausea ([4]; Part 2, FDV 480 mg (n = 8)): three subjects | Headache ([4]; Part 2, FDV 480 mg (n = 8)): one subject | Vomiting ([4]; Part 2, FDV 480 mg (n = 8)): two subjects | Effect on CYP3A4 (CYP3A4): weak inhibitory effects | Sustained virologic response (SVR) rate (HCV): up to 84% | Enrichment in the liver compared with plasma [5]: 42 fold
